Reference: PubChem BioAssay (NCI)
Values joined by “and” are separate entries in the source; they are usually repeats but may differ in a detail not shown here. Equal values may be shown once.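 Grown in 96-well plates, cells were treated for 48 hours with each compound at five concentrations. Insufficient inhibition: endpoint recorded as highest concentration tested. TGI marks complete inhibition of growth.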

Key:
Test in all cases: NCI-60 cell line screen, 48 h
SR leukemia = test system: SR leukemia
IGROV1 ovarian = test system: IGROV1 ovarian
CCRF-CEM leukemia = test system: CCRF-CEM leukemia
NCI/ADR-RES ovarian = test system: NCI/ADR-RES ovarian
LOX IMVI melanoma = test system: LOX IMVI melanoma
NCI-H522 lung = test system: NCI-H522 lung
SW-620 colon = test system: SW-620 colon
TK-10 renal = test system: TK-10 renal
OVCAR-5 ovarian = test system: OVCAR-5 ovarian
RXF 393 renal = test system: RXF 393 renal
NCI-H23 lung = test system: NCI-H23 lung
SK-OV-3 ovarian = test system: SK-OV-3 ovarian
MDA-MB-435 = test system: MDA-MB-435
EKVX NSCLC = test system: EKVX NSCLC
RPMI-8226 leukemia = test system: RPMI-8226 leukemia
SNB-19 CNS = test system: SNB-19 CNS
OVCAR-8 ovarian = test system: OVCAR-8 ovarian
OVCAR-4 ovarian = test system: OVCAR-4 ovarian
SK-MEL-2 melanoma = test system: SK-MEL-2 melanoma
SK-MEL-5 melanoma = test system: SK-MEL-5 melanoma
KM12 colon = test system: KM12 colon
ACHN renal = test system: ACHN renal
SK-MEL-28 melanoma = test system: SK-MEL-28 melanoma
HOP-92 NSCLC = test system: HOP-92 NSCLC
HT29 colon = test system: HT29 colon
SN12C renal = test system: SN12C renal
MOLT-4 leukemia = test system: MOLT-4 leukemia
SF-539 CNS = test system: SF-539 CNS
SF-295 CNS = test system: SF-295 CNS
K-562 leukemia = test system: K-562 leukemia
U251 CNS = test system: U251 CNS
BT-549 breast = test system: BT-549 breast
CAKI-1 renal = test system: CAKI-1 renal
DU-145 prostate = test system: DU-145 prostate
NCI-H226 lung = test system: NCI-H226 lung
HOP-62 NSCLC = test system: HOP-62 NSCLC
HCT-15 colon = test system: HCT-15 colon
SNB-75 CNS = test system: SNB-75 CNS
T-47D breast = test system: T-47D breast
SF-268 CNS = test system: SF-268 CNS
UACC-62 melanoma = test system: UACC-62 melanoma
HS 578T breast = test system: HS 578T breast
MDA-MB-231 breast = test system: MDA-MB-231 breast
HCC-2998 colon = test system: HCC-2998 colon
COLO 205 colon = test system: COLO 205 colon
M14 melanoma = test system: M14 melanoma
OVCAR-3 ovarian = test system: OVCAR-3 ovarian
786-0 renal = test system: 786-0 renal
A498 renal = test system: A498 renal
MCF7 breast = test system: MCF7 breast
MALME-3M melanoma = test system: MALME-3M melanoma
HCT-116 colon = test system: HCT-116 colon

SMILES: CCCC(=O)Nc1cc(/C=C/C(=O)N2CC(CCl)c3c2cc(O)c2[nH]cc(C)c32)n(C)c1 (centres undefined)
- TGI (SR leukemia): > 140 nM
- TGI (IGROV1 ovarian): > 250 nM
- TGI (CCRF-CEM leukemia): 0.155 nM
- TGI (NCI/ADR-RES ovarian): 3.72 nM
- TGI (LOX IMVI melanoma): 16.3 nM
- TGI (NCI-H522 lung): < 0.025 nM
- TGI (SW-620 colon): > 250 nM
- TGI (TK-10 renal): < 0.025 nM
- TGI (OVCAR-5 ovarian): 28.6 nM
- TGI (RXF 393 renal): < 0.025 nM
- TGI (NCI-H23 lung): < 0.025 nM
- TGI (SK-OV-3 ovarian): 5.63 nM
- TGI (MDA-MB-435): < 0.025 nM
- TGI (EKVX NSCLC): 2.93 nM
- TGI (RPMI-8226 leukemia): 1.54 nM
- TGI (SNB-19 CNS): 6.08 nM
- TGI (OVCAR-8 ovarian): 0.532 nM
- TGI (OVCAR-4 ovarian): 38 nM
- TGI (SK-MEL-2 melanoma): < 0.025 nM
- TGI (SK-MEL-5 melanoma): < 0.025 nM
- TGI (KM12 colon): > 250 nM
- TGI (ACHN renal): < 0.025 nM
- TGI (SK-MEL-28 melanoma): > 250 nM
- TGI (HOP-92 NSCLC): < 0.025 nM
- TGI (HT29 colon): 28.5 nM
- TGI (SN12C renal): 0.528 nM
- TGI (MOLT-4 leukemia): 12.1 nM
- TGI (SF-539 CNS): < 0.025 nM
- TGI (SF-295 CNS): 0.0298 nM
- TGI (K-562 leukemia): > 250 nM
- TGI (U251 CNS): 44.9 nM
- TGI (BT-549 breast): 0.504 nM
- TGI (CAKI-1 renal): < 0.025 nM
- TGI (DU-145 prostate): 0.817 nM
- TGI (NCI-H226 lung): 0.04 nM
- TGI (HOP-62 NSCLC): < 0.025 nM
- TGI (HCT-15 colon): > 196 nM
- TGI (SNB-75 CNS): < 0.025 nM
- TGI (T-47D breast): 8.84 nM
- TGI (SF-268 CNS): < 0.025 nM
- TGI (UACC-62 melanoma): < 0.025 nM
- TGI (HS 578T breast): 0.0635 nM
- TGI (MDA-MB-231 breast): 34.4 nM

SMILES: CC(=O)Nc1ccc(/C=C/C(=O)N2CC(CCl)c3c2cc(N)c2ccccc32)cc1 (centres undefined)
- TGI (SR leukemia): 50000 nM
- TGI (IGROV1 ovarian): 614 nM
- TGI (HCC-2998 colon): 42.7 nM and 129 nM
- TGI (CCRF-CEM leukemia): 50000 nM
- TGI (LOX IMVI melanoma): 97 nM
- TGI (NCI-H522 lung): 6.71 nM
- TGI (SW-620 colon): 509 nM
- TGI (TK-10 renal): 18700 nM
- TGI (SK-OV-3 ovarian): 573 nM and 300 nM
- TGI (EKVX NSCLC): 57.6 nM
- TGI (RPMI-8226 leukemia): 50000 nM
- TGI (SNB-19 CNS): 26.9 nM and 111 nM
- TGI (OVCAR-8 ovarian): 74.1 nM
- TGI (COLO 205 colon): 36.2 nM
- TGI (OVCAR-4 ovarian): 9180 nM
- TGI (SK-MEL-5 melanoma): 5.89 nM
- TGI (M14 melanoma): 7.95 nM
- TGI (KM12 colon): 50000 nM and > 100000 nM
- TGI (HOP-92 NSCLC): 9.89 nM
- TGI (HT29 colon): 38.4 nM
- TGI (SN12C renal): 7.2 nM
- TGI (MOLT-4 leukemia): 50000 nM
- TGI (SF-295 CNS): 38500 nM
- TGI (K-562 leukemia): 50000 nM
- TGI (BT-549 breast): 32.6 nM and 21.8 nM
- TGI (DU-145 prostate): 135 nM
- TGI (OVCAR-3 ovarian): 5560 nM
- TGI (NCI-H226 lung): 29.2 nM
- TGI (HOP-62 NSCLC): 14.5 nM
- TGI (HCT-15 colon): 50000 nM
- TGI (786-0 renal): 12.4 nM
- TGI (SF-268 CNS): 20.8 nM
- TGI (A498 renal): 6.09 nM
- TGI (MCF7 breast): 50000 nM and > 100000 nM
- TGI (MALME-3M melanoma): 7.56 nM
- TGI (HCT-116 colon): 140 nM
